Measured values from ChEMBL document CHEMBL3286126, “Synthesis of novel β-carboline based chalcones with high cytotoxic activity against breast cancer cells” (Bioorg Med Chem Lett, 2014).
Calls of active or inactive are those of the source. No cut-off for these calls is given here.

Columns and labels:
[1] = Cytotoxicity against human MIAPaCa2 cells at 10 uM after 48 hrs by SRB assay; type: functional; settings: MIA PaCa-2, 48 h
[2] = Cytotoxicity against human PLC/PRF/5 cells at 10 uM after 48 hrs by SRB assay; type: functional; settings: PLC-PRF-5, 48 h
SK-OV-3 [3] = experiment: Cytotoxicity against human SKOV3 cells at 10 uM after 48 hrs by SRB assay; type: functional; settings: SK-OV-3, 48 h
DU-145 = experiment: Cytotoxicity against human DU145 cells at 10 uM after 48 hrs by SRB assay; type: functional; settings: DU-145, 48 h
[4] = Cytotoxicity against human A172 cells at 10 uM after 48 hrs by SRB assay; type: functional; settings: A 172, 48 h
A549 [5] = experiment: Cytotoxicity against human A549 cells at 10 uM after 48 hrs by SRB assay; type: functional; settings: A549, 48 h
MCF7 [6] = experiment: Cytotoxicity against human MCF7 cells at 10 uM after 48 hrs by SRB assay; type: functional; settings: MCF7, 48 h
[7] = Cytotoxicity against human DLD1 cells at 10 uM after 48 hrs by SRB assay; type: functional; settings: DLD-1, 48 h
[8] = Cytotoxicity against human A172 cells after 48 hrs by SRB assay; type: functional, cell-based; settings: A 172, 48 h
MCF7 [9] = experiment: Cytotoxicity against human MCF7 cells after 48 hrs by SRB assay; type: functional, cell-based; settings: for IC50: MCF7, 48 h
A549 [10] = experiment: Cytotoxicity against human A549 cells after 48 hrs by SRB assay; type: functional, cell-based; settings: A549, 48 h
PC-3 = experiment: Cytotoxicity against human PC3 cells after 48 hrs by SRB assay; type: functional, cell-based; settings: PC-3, 48 h
SK-OV-3 [11] = experiment: Cytotoxicity against human SKOV3 cells after 48 hrs by SRB assay; type: functional, cell-based; settings: SK-OV-3, 48 h
Vero = experiment: Cytotoxicity against African green monkey Vero cells after 48 hrs by SRB assay; type: cell-based; settings: Chlorocebus sabaeus
4T1 = experiment: Cytotoxicity against mouse 4T1 cells after 48 hrs by SRB assay; type: functional, cell-based
MDA-MB-231 = experiment: Cytotoxicity against human MDA-MB-231 cells after 48 hrs by SRB assay; type: functional, cell-based
MCF7 [12] = experiment: Induction of apoptosis in human MCF7 cells assessed as necrotic cells after 24 hrs using 7-AAD/annexin-V staining by flow cytometry analysis; type: functional
MCF7 [13] = experiment: Induction of apoptosis in human MCF7 cells assessed as viable cells after 24 hrs using 7-AAD/annexin-V staining by flow cytometry analysis; type: functional
MCF7 [14] = experiment: Induction of apoptosis in human MCF7 cells assessed as late apoptotic cells after 24 hrs using 7-AAD/annexin-V staining by flow cytometry analysis; type: functional
MCF7 [15] = experiment: Induction of apoptosis in human MCF7 cells assessed as early apoptotic cells after 24 hrs using 7-AAD/annexin-V staining by flow cytometry analysis; type: functional
MCF7 [16] = experiment: Induction of apoptosis in human MCF7 cells assessed as DNA fragmentation at 10 uM after 24 hrs […] by APOBrdU TUNNEL assay; type: functional, cell-based

SMILES	inhibition at 10 µM [1] [%]	inhibition at 10 µM [2] [%]	inhibition at 10 µM (SK-OV-3 [3]) [%]	inhibition at 10 µM (DU-145) [%]	inhibition at 10 µM [4] [%]	inhibition at 10 µM (A549 [5]) [%]	inhibition at 10 µM (MCF7 [6]) [%]	inhibition at 10 µM [7] [%]	other results
O=C(/C=C/c1nccc2c1[nH]c1ccccc12)c1ccc(F)cc1	-4.04	49.9	8.15	-5.2	16.2	6.73	9.92	25.6	–
COc1ccc(C(=O)/C=C/c2nccc3c4ccccc4n(C)c23)cc1	-0.03	16.9	37.4	9.1	0.18	-3.88	8.18	28.2	–
Cc1ccc(C(=O)/C=C/c2nccc3c2[nH]c2ccccc23)cc1	2.1	70.5	5.1	11.4	60.5	9.91	20.9	42.4	–
COc1cc(C(=O)/C=C/c2nccc3c2[nH]c2ccccc23)cc(OC)c1OC	84.8	73.9	36.6	76.1	65	73.4	86.8	80.6	IC50 [8]: > 10 µM; Activity (MCF7 [9]): Dose-dependent effect; IC50 (MCF7 [9]): 3.29 µM; IC50 (A549 [10]): 5.41 µM; IC50 (PC-3): > 10 µM; IC50 (SK-OV-3 [11]): > 10 µM; IC50 (Vero): > 10 µM; Activity (4T1): Dose-dependent effect; Activity (MDA-MB-231): Dose-dependent effect
Cc1ccc(C(=O)/C=C/c2nccc3c4ccccc4n(C)c23)cc1	13.7	32.2	46.2	45.7	19.2	13.2	20.8	35.8	–
CCn1c2ccccc2c2ccnc(/C=C/C(=O)c3ccc(OC)c(OC)c3)c21	15.3	56.2	57.6	56.8	70.1	35.6	29.6	66	–
COc1cc(C(=O)/C=C/c2nccc3c4ccccc4n(C)c23)cc(OC)c1OC	19	40.1	37.4	59.5	38.8	33.8	28.8	49.5	–
Cn1c2ccccc2c2ccnc(/C=C/C(=O)c3ccccc3)c21	25.5	64.9	28.6	53.2	75.5	19.3	27.2	67.5	–
COc1ccc(C(=O)/C=C/c2nccc3c4ccccc4n(C)c23)cc1OC	7.71	42.4	68.7	34.1	15.5	19.6	12.9	45.3	–
COc1ccc(C(=O)/C=C/c2nccc3c2[nH]c2ccccc23)cc1OC	87.5	78.3	41.6	71.9	74.3	84.7	94.5	88.1	IC50 [8]: 3.33 µM; Activity (MCF7 [9]): Dose-dependent effect; IC50 (MCF7 [9]): 2.25 µM; IC50 (A549 [10]): 2.31 µM; IC50 (PC-3): 5.99 µM; IC50 (SK-OV-3 [11]): > 10 µM; IC50 (Vero): > 10 µM; Activity (4T1): Dose-dependent effect; Activity (MDA-MB-231): Dose-dependent effect; Activity (MCF7 [12]): 3.12%; Activity (MCF7 [13]): 37%; Activity (MCF7 [14]): 39.5%; Activity (MCF7 [15]): 20.4%; Activity (MCF7 [16]): Active
O=C(/C=C/c1nccc2c1[nH]c1ccccc12)c1ccccc1	21.7	76.7	0.91	20.1	78.4	11.7	32.9	70.1	–
CCn1c2ccccc2c2ccnc(/C=C/C(=O)c3ccccc3)c21	25	75.1	33.5	54.2	80.5	12.5	39.3	77.6	–
COc1ccc(C(=O)/C=C/c2nccc3c2[nH]c2ccccc23)cc1	33.7	70.8	33.9	61.9	77.2	29.2	37.2	74.2	–
CCn1c2ccccc2c2ccnc(/C=C/C(=O)c3ccc(C)cc3)c21	11.9	34.1	47.7	35	26.6	16.4	30	44.1	–
CCn1c2ccccc2c2ccnc(/C=C/C(=O)c3ccc(OC)cc3)c21	9.18	61.6	43.7	52.5	39.2	21.2	27.2	55.5	–
CCn1c2ccccc2c2ccnc(/C=C/C(=O)c3cc(OC)c(OC)c(OC)c3)c21	24.7	70.7	68.5	60.1	81.1	44.4	32.7	73.4	–
O=C(/C=C/c1nccc2c1[nH]c1ccccc12)c1ccc(Cl)cc1	-13.1	80.5	0.2	7.63	75.8	4.68	15	41.2	–
COc1cccc2c1C(=O)c1c(O)c3c(c(O)c1C2=O)C[C@@](O)(C(=O)CO)C[C@@H]3O[C@H]1C[C@H](N)[C@H](O)[C@H](C)O1 [DOXORUBICIN]	85.1	90.7	69.2	73.9	67.6	69	56.9	73.2	–
O=C(/C=C/c1nccc2c1[nH]c1ccccc12)c1ccc(Br)cc1	-4.72	26.4	-2.43	-0.24	5.41	9.19	7.15	14.9	–
